# Literature values as cited in patent US9072782B2, “Gadolinium complex, method for preparing same, and MRI contrast agent comprising same” (CATHLOIC UNIVERSITY INDUSTRY ACADEMIC COOPERATION FOUNDATION, priority 2009, dated 2015).
# Legend:
# [1] = prior DTPA-Gd
# [2] = Hiroki Yoshikawa et al., Gazoshindan 1986
smiles,measurement,setting,value
O=C([O-])CN(CCN(CC(=O)[O-])CC(=O)O)CCN(CC(=O)[O-])CC(=O)O.[Gd+3] [DTPA-Gd],time taken to be washed out from tissue,[1],about 30 minutes
same,half-life,[2],about 14 minutes
